Data: US11780849B2, “Imino sulfanone inhibitors of ENPP1” (Volastra Therapeutics, Inc., priority 2020, dated 2023)
pIC50, pKi: −log10 of the molar value. Like-named read-outs stand apart in the source and are kept apart here.

How the values were obtained:
[1] = molecular target: ENPP1 on MDA-MB-231 cells (Homo sapiens (Human), UniProt P22413); assay: Assay 3: inhibition of ENPP1 hydrolysis of AMP p-nitrophenyl ester on MDA-MB-231 cells
Method: Hydrolysis of the p-nitrophenyl ester of AMP (pNP-AMP), an isostere of ATP, is selectively catalyzed by ENPP1 in the supernatant of MDA-MB-231 cell cultures. Inhibition of the hydrolysis of pNP-AMP by MDA-MB-231 at pH 7.4 and 37° C., is a good model of physiologically relevant activity of membrane-bound ENPP1 at disease-relevant expression levels.
MDA-MB-231 cells were harvested using TypLE Express Enzyme digestion and suspended in 100 μL of Leibovitz's L-15 Medium, 20% FBS, seeding the cells in a 96-well assay plate with 4.5×10^4 cells/well. Cells were incubated at 37° C. with 1% CO2 for 24 h. In a separate dilution plate, 2× of top dose of compound was prepared in phenol-red free 1640 medium without FBS and then 1:3 serial diluted in the same medium. The cell culture medium of L15 medium was aspirated carefully and cells were washed with PBS once, and 50 μL per well of test compound or DMSO blank were added to the assay plate. Substrate mix (50 μL; 0.5 mM pNP-AMP in phenol-red free 1640 media without FBS) was added for a pNP-AMP final concentration of 0.25 mM. The system was incubated at 37° C. for 3 h.

ENPP-1 ECD [2] = molecular target: T1, ENPP-1 ECD (Homo sapiens (Human), UniProt P22413); assay: Assay 2: inhibition of ENPP1 hydrolysis of 2′,3′-cGAMP (AMP-Glo, […] enzyme); conditions: for Ki: inhibition of ENPP1 hydrolysis of 2′,3′-cGAMP, no unit in Table 18 (Table 17 legend for this assay uses nM); for pKi: ENPP1 hydrolysis of 2′,3′-cGAMP, AMP-Glo, […] ENPP-1, 24 μM cGAMP
T1 sequence (P22413 98-925): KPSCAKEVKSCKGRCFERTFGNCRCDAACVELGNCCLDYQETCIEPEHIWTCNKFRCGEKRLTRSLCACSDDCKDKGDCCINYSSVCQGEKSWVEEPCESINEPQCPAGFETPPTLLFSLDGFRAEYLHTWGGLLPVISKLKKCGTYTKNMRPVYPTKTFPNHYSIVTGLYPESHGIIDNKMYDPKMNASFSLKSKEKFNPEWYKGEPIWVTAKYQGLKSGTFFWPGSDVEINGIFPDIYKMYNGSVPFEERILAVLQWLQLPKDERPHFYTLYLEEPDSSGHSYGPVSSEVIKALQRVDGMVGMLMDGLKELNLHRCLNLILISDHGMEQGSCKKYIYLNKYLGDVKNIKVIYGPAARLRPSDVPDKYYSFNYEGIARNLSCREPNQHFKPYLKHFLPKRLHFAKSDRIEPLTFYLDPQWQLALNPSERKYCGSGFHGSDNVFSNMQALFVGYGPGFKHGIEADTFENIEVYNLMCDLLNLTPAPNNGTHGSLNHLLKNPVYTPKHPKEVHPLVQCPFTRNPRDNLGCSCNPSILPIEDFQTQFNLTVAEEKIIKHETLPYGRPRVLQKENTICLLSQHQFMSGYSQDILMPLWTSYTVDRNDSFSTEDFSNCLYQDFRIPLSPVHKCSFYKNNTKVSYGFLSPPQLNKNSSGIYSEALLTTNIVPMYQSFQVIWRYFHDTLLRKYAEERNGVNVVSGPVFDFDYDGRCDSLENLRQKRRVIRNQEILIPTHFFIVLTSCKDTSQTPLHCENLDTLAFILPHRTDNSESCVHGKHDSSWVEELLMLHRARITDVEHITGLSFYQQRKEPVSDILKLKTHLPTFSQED
Method: Assay 2: Compared to the conditions in Assay 1, this assay has a larger dynamic range and ensures the system is under steady-state conditions by reducing the enzyme concentration in the assay.
Test compounds were plated in a 3× dilution scheme in a 384 well plate. […] AMP Detection solution (10 μL) was added to each well, the plate centrifuged and incubated for 60 min.

ENPP-1 ECD [3] = molecular target: T1, ENPP-1 ECD; assay: Assay 1: inhibition of ENPP1 hydrolysis of 2′,3′-cGAMP (AMP-Glo, […] enzyme); conditions: for pIC50: ENPP1 hydrolysis of 2′,3′-cGAMP, AMP-Glo; for IC50: inhibition of ENPP1 hydrolysis of 2′,3′-cGAMP, no unit in Table 18 (Table 17 legend for this assay uses nM)
Method: Assay 1: Test compounds were plated in a 3× dilution scheme in a 384 well plate. […] AMP Detection solution (100 μL) was added to each well, the plate centrifuged and incubated for 60 min.

[4] = read-out: Assay 3 (KI, app), apparent KI from IC50 via Cheng/Prusoff, pNP-AMP […], MDA-MB-231 cells, pH 7.4, 37° C., 3 h, unit inferred

ENPP1 on MDA-MB-231 cells, sequence (P22413 whole entry, the tested form may be a part): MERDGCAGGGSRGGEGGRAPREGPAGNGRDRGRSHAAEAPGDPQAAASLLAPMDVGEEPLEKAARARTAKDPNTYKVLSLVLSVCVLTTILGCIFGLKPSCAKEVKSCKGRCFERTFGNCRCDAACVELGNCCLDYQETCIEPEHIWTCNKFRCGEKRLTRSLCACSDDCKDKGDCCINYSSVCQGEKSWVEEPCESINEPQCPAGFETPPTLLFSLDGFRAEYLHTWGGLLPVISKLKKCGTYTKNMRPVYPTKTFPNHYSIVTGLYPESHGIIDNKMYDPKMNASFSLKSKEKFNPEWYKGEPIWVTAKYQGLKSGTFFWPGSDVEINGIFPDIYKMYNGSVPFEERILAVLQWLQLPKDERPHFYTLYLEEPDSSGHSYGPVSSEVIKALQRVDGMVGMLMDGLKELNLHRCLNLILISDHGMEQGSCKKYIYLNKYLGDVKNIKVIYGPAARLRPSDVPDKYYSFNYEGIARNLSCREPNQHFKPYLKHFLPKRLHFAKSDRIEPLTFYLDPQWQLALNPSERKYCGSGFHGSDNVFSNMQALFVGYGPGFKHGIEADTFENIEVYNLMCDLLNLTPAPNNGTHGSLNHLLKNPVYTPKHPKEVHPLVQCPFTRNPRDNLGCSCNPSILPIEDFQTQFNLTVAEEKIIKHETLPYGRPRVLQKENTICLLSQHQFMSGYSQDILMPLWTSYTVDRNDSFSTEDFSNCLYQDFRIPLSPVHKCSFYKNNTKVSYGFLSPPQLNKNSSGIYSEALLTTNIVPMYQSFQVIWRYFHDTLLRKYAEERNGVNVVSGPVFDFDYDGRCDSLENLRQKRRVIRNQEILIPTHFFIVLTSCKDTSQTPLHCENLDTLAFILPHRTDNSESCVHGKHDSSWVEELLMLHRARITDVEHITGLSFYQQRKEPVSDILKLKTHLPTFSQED

Compound | pKi [1] | Ki (ENPP-1 ECD [2]; Assay 2 (KI)) [nM] | Ki (ENPP-1 ECD [2]; read-out: Assay 2 (KI)) [nM] | also measured
COc1cccc2c(N3CCC(O)(CS(=N)(=O)C4CCC4)CC3)ncnc12 (stereo not drawn) [Compound 191, cyclobutyl({[4-hydroxy-1-(8-methoxyquinazolin-4-yl)piperidin-4-yl]methyl})imino-λ^6-sulfanone] | 7.82 | 0.34 | – | –
COc1cc2nnc(C)c(N3CCC4(CC3)CCN(S(C)(=N)=O)C4)c2cc1Cl (stereo not drawn) [Compound 220, [8-(6-chloro-7-methoxy-3-methylcinnolin-4-yl)-2,8-diazaspiro[4.5]decan-2-yl](imino)methyl-λ^6-sulfanone] | 7.96 | 0.25 | – | –
COc1cc2nccc(N3CC4(CC(CS(C)(=N)=O)C4)C3)c2cc1F (stereo not drawn) [Compound 184, {[2-(6-fluoro-7-methoxyquinolin-4-yl)-2-azaspiro[3.3]heptan-6-yl]methyl}(imino)methyl-λ^6-sulfanone] | 8.26 | 0.13 | – | –
COc1ccc2c(Oc3ccc(S(=N)(=O)CC4CC4)cc3)ccnc2c1 (stereo not drawn) [Compound 123, (cyclopropylmethyl)(imino){4-[(7-methoxyquinolin-4-yl)oxy]phenyl}-λ^6-sulfanone] | 7.22 | 1.5 | – | pKi (ENPP-1 ECD [2]; Assay 2 (KI)): > 8.52
COc1cccc2c(N3CC[C@H](C[S@@](C)(=N)=O)C3)ncnc12 [Compound 238a] | – | – | 66 | pKi [1, 4]: 6.59
COc1cc2nccc(N3CC4(CC(C[S@@](C)(=N)=O)C4)C3)c2cc1F [Compound 184a] | – | – | 0.1 | pKi [1, 4]: 8.77
COc1cccc2c(N3CC4(CCN(S(C)(=N)=O)C4)C3)ncnc12 (stereo not drawn) [Compound 217, imino[2-(8-methoxyquinazolin-4-yl)-2,6-diazaspiro[3.4]octan-6-yl]methyl-λ^6-sulfanone] | 8.10 | 0.29 | – | –
COc1cccc2c(N3CCC4(C3)CN(S(C)(=N)=O)C4)ncnc12 (stereo not drawn) [Compound 223, imino[6-(8-methoxyquinazolin-4-yl)-2,6-diazaspiro[3.4]octan-2-yl]methyl-λ^6-sulfanone] | 8.49 | 0.11 | – | –
COc1cc2ncnc(N3CCC4(CC3)CCN(S(=N)(=O)C3CC3)C4)c2cc1OC (stereo not drawn) [Compound 160, {cyclopropyl[8-(6,7-dimethoxyquinazolin-4-yl)-2,8-diazaspiro[4.5]decan-2-yl]imino-λ^6-sulfanyl}one] | 9.35 | 0.021 | – | pKi (ENPP-1 ECD [2]; Assay 2 (KI)): > 8.52
COc1cccc2c(N3CC[C@@H](C[S@](C)(=N)=O)C3)ncnc12 [Compound 239a] | – | – | 0.43 | pKi [1, 4]: 8.27
COc1cc2nccc(N3CC4(CC(CS(C)(=N)=O)C4)C3)c2cc1OC (stereo not drawn) [Compound 186, {[2-(6,7-dimethoxyquinolin-4-yl)-2-azaspiro[3.3]heptan-6-yl]methyl}(imino)methyl-λ^6-sulfanone] | 7.77 | 0.38 | – | –
COc1cc2nncc(N3CC4(CC(CS(C)(=N)=O)C4)C3)c2cc1OC (stereo not drawn) [Compound 188, {[2-(6,7-dimethoxycinnolin-4-yl)-2-azaspiro[3.3]heptan-6-yl]methyl}(imino)methyl-λ^6-sulfanone] | 8.19 | 0.074 | – | –
COc1cc2nccc(N3CCC4(CC3)CCN([S@@](C)(=N)=O)C4)c2cc1Cl [Compound 156a] | – | – | 0.016 | pKi [1, 4]: 8.77; pKi (ENPP-1 ECD [2]; read-out: Assay 2 (KI)): > 8.52
COc1cc2nncc(N3CCC4(CC3)CCN(S(=N)(=O)C3CC3)C4)c2cc1Cl (stereo not drawn) [Compound 225, {[8-(6-chloro-7-methoxycinnolin-4-yl)-2,8-diazaspiro[4.5]decan-2-yl](cyclopropyl)imino-λ^6-sulfanyl}one] | 8.17 | 0.096 | – | –
COc1cccc2c(N3CCC(CS(C)(=N)=O)CC3)c(C#N)c(C)nc12 (stereo not drawn) [Compound 201, 4-(4-{[imino(methyl)oxo-λ^6-sulfanyl]methyl}piperidin-1-yl)-8-methoxy-2-methylquinoline-3-carbonitrile] | 7.92 | 0.69 | – | –
CS(=N)(=O)CC1CCN(c2c(C#N)cnc3c(OCF)cccc23)CC1 (stereo not drawn) [Compound 200, 8-(fluoromethoxy)-4-(4-{[imino(methyl)oxo-λ^6-sulfanyl]methyl}piperidin-1-yl)quinoline-3-carbonitrile] | 9.39 | 0.019 | – | –
COc1ccc2c(O[C@@H](C)c3cccc(S(C)(=N)=O)c3)ccnc2c1 (stereo partly drawn) [Compound 245, imino({3-[(1S)-1-[(7-methoxyquinolin-4-yl)oxy]ethyl]phenyl})methyl-λ^6-sulfanone] | 8.24 | 0.23 | – | –
COc1cccc2c(N3CCC(O)(CS(=N)(=O)C4CC4)CC3)ncnc12 (stereo not drawn) [Compound 193, cyclopropyl({[4-hydroxy-1-(8-methoxyquinazolin-4-yl)piperidin-4-yl]methyl})imino-λ^6-sulfanone] | 9.21 | 0.023 | – | –

Compound | pKi [1] | Ki (ENPP-1 ECD [2]; Assay 2 (KI)) [nM] | Ki (ENPP-1 ECD [2]; read-out: Assay 2 (KI)) [nM] | also measured
COc1cc2nccc(OCc3cccc([S@](C)(=N)=O)c3)c2cc1OC [Compound 175a] | – | – | 0.011 | pKi [1, 4]: 9.28
COc1cc2nccc(OCc3cccc(S(C)(=N)=O)c3)c2cc1Cl (stereo not drawn) [Compound 176, (3-{[(6-chloro-7-methoxyquinolin-4-yl)oxy]methyl}phenyl)(imino)methyl-λ^6-sulfanone] | 8.14 | 0.094 | – | –
COc1cc2nccc(N3CCC4(CC3)CCN([S@@](=N)(=O)C3CC3)C4)c2cc1F [Compound 218a] | – | – | 0.0078 | pKi [1, 4]: 9.54
COc1ccc2c(Oc3ccc(S(C)(=N)=O)cc3)c(C)cnc2c1 (stereo not drawn) [Compound 168, imino({4-[(7-methoxy-3-methylquinolin-4-yl)oxy]phenyl})methyl-λ^6-sulfanone] | 7.40 | 0.84 | – | –
COc1cc2ncc(C#N)c(Oc3ccc([S@](C)(=N)=O)cc3)c2cc1F [Compound 44b] | – | – | 350 | pIC50 (ENPP-1 ECD [3]; read-out: Assay 1 (IC50)): < 6.00; IC50 (ENPP-1 ECD [3]; read-out: Assay 1 (IC50)): 1900 nM; pKi (ENPP-1 ECD [2]; read-out: Assay 2 (KI)): < 6.52
COc1ccc2c(N3CCC(CCS(C)(=N)=O)CC3)ccnc2c1 (stereo not drawn) [Compound 69, imino(2-(1-(7-methoxyquinolin-4-yl)piperidin-4-yl)ethyl)(methyl)-λ^6-sulfanone] | – | 10 | – | pIC50 (ENPP-1 ECD [3]; Assay 1 (IC50)): 6.00 to 8.00; IC50 (ENPP-1 ECD [3]; Assay 1 (IC50)): 55 nM; pKi (ENPP-1 ECD [2]; Assay 2 (KI)): 6.52 to 8.52
COc1cc2ncnc(-c3ccc(CCS(C)(=N)=O)cc3)c2cc1OC (stereo not drawn) [Compound 153, {2-[4-(6,7-dimethoxyquinazolin-4-yl)phenyl]ethyl}(imino)methyl-λ^6-sulfanone] | – | 12 | – | pIC50 (ENPP-1 ECD [3]; Assay 1 (IC50)): 6.00 to 8.00; IC50 (ENPP-1 ECD [3]; Assay 1 (IC50)): 54 nM; pKi (ENPP-1 ECD [2]; Assay 2 (KI)): 6.52 to 8.52
COc1ccc2c(-c3ccc(CNS(C)(=N)=O)cc3)ccnc2c1 (stereo not drawn) [Compound 162, N-{[4-(7-methoxyquinolin-4-yl)phenyl]methyl}methanesulfonoimidamide] | – | 6.9 | – | pIC50 (ENPP-1 ECD [3]; Assay 1 (IC50)): 6.00 to 8.00; IC50 (ENPP-1 ECD [3]; Assay 1 (IC50)): 40 nM; pKi (ENPP-1 ECD [2]; Assay 2 (KI)): 6.52 to 8.52
COc1ccc2c(Oc3ccc([S@](=N)(=O)C4CC4)cc3)ccnc2c1 [Compound 60b] | – | – | 93 | pIC50 (ENPP-1 ECD [3]; read-out: Assay 1 (IC50)): 6.00 to 8.00; IC50 (ENPP-1 ECD [3]; read-out: Assay 1 (IC50)): 520 nM; pKi (ENPP-1 ECD [2]; read-out: Assay 2 (KI)): 6.52 to 8.52
COc1cc2nccc(Oc3ccc([S@@](C)(=N)=O)cc3)c2cc1F [Compound 114b] | – | – | > 25 | pIC50 (ENPP-1 ECD [3]; read-out: Assay 1 (IC50)): 6.00 to 8.00; IC50 (ENPP-1 ECD [3]; read-out: Assay 1 (IC50)): 77 nM; pKi (ENPP-1 ECD [2]; read-out: Assay 2 (KI)): 6.52 to 8.52
COc1ccc2c(N3CCC(CCS(C)(=N)=O)CC3)ncnc2c1 (stereo not drawn) [Compound 139, imino({2-[1-(7-methoxyquinazolin-4-yl)piperidin-4-yl]ethyl})methyl-λ^6-sulfanone] | – | 2.4 | – | pIC50 (ENPP-1 ECD [3]; Assay 1 (IC50)): 6.00 to 8.00; IC50 (ENPP-1 ECD [3]; Assay 1 (IC50)): 15 nM; pKi (ENPP-1 ECD [2]; Assay 2 (KI)): > 8.52
COc1cc2nccc(Oc3ccc([S@](=N)(=O)C4CC4)cc3)c2cc1F [Compound 120b] | – | – | 4.8 | pIC50 (ENPP-1 ECD [3]; read-out: Assay 1 (IC50)): 6.00 to 8.00; IC50 (ENPP-1 ECD [3]; read-out: Assay 1 (IC50)): 37 nM; pKi (ENPP-1 ECD [2]; read-out: Assay 2 (KI)): 6.52 to 8.52
CS(=N)(=O)CCC1CCN(c2ccnc3ccccc23)CC1 (stereo not drawn) [Compound 149, imino(methyl){2-[1-(quinolin-4-yl)piperidin-4-yl]ethyl}-λ^6-sulfanone] | – | 410 | – | IC50 (ENPP-1 ECD [3]; Assay 1 (IC50)): 1400 nM; pIC50 (ENPP-1 ECD [3]; read-out: Assay 1 (IC50)): < 6.00; pKi (ENPP-1 ECD [2]; Assay 2 (KI)): < 6.52
COc1ccc2c(OCc3cccc([S@](C)(=N)=O)c3)ccnc2c1 [Compound 133b] | – | – | 49 | pIC50 (ENPP-1 ECD [3]; read-out: Assay 1 (IC50)): < 6.00; IC50 (ENPP-1 ECD [3]; read-out: Assay 1 (IC50)): > 100 nM; pKi (ENPP-1 ECD [2]; read-out: Assay 2 (KI)): 6.52 to 8.52
COc1cc2nccc(Oc3ccc(S(C)(=N)=O)cc3F)c2cc1OC (stereo not drawn) [Compound 116, {4-[(6,7-dimethoxyquinolin-4-yl)oxy]-3-fluorophenyl}(imino)methyl-λ^6-sulfanone] | – | 25 | – | pIC50 (ENPP-1 ECD [3]; Assay 1 (IC50)): 6.00 to 8.00; IC50 (ENPP-1 ECD [3]; Assay 1 (IC50)): 220 nM; pKi (ENPP-1 ECD [2]; Assay 2 (KI)): 6.52 to 8.52
COc1cccc2c(Oc3ccc(S(C)(=N)=O)cc3)ncnc12 (stereo not drawn) [Compound 84, imino(4-((8-methoxyquinazolin-4-yl)oxy)phenyl)(methyl)-λ^6-sulfanone] | – | 210 | – | IC50 (ENPP-1 ECD [3]; Assay 1 (IC50)): 1300 nM; pIC50 (ENPP-1 ECD [3]; read-out: Assay 1 (IC50)): < 6.00; pKi (ENPP-1 ECD [2]; Assay 2 (KI)): 6.52 to 8.52
COc1cc2ncnc(OCc3ccc(S(C)(=N)=O)cc3)c2cc1OC (stereo not drawn) [Compound 14, (4-(((6,7-dimethoxyquinazolin-4-yl)oxy)methyl)phenyl)(imino)(methyl)-λ^6-sulfanone] | – | 15 | – | pIC50 (ENPP-1 ECD [3]; Assay 1 (IC50)): 6.00 to 8.00; IC50 (ENPP-1 ECD [3]; Assay 1 (IC50)): 110 nM; pKi (ENPP-1 ECD [2]; Assay 2 (KI)): 6.52 to 8.52
